From patent publication US7387806B2, “Method of using geranium oil and sophora root extracts as a supporting composition in cancer treatments” (priority 2001, dated 2008)

Test: Pharmacokinetics study of intravenous injection of matrine or oxymatrine with addition of geranium oil
Method: The Sophora root typically is about 10-30 cm long, 1-2 cm in diameter and generally takes on a grayish brown or grayish yellow color. The root preferably has a mild scent and an extremely bitter taste. It is grown mainly in China, Korea, and Japan. Presently, the alkaloids identified in Sophora roots are matrine, oxymatrine, sophoranol, N-methylcytisine, anagyrine, baptifoline, sophocarpine, sophoridine, iso matrine, 7, 11-Dehydromatrine, sophoramine, 7-Dehydrosophoramine, 9α-Hydroxy-Sophoramine, 5α,9α-Dihydroxymatrine, N-Oxysophocarpine, sophoranol N-oxide, rhombifoline, Lupanine, Mamanine, Kuraramine, Isokuraramine, Kurarinol. The known main constituents are matrine, oxymatrine. The principal main constituents of Sophora flavescenes are also found in Sophora subprostrata, Sophora tonkinensis, Sophora alopecuroides, Sophora moorcroftiana, and Euchresta strigillosa.

effect of addition of geranium oil on absorption and metabolism of the compound (in vivo, iv) | Compound | effect of addition of geranium oil on absorption and metabolism of the compound (intravenous injection, with vs without geranium oil)
– | O=C1CCC[C@@H]2[C@H]3CCCN4CCC[C@@H](CN12)[C@@H]34 [matrine] | increase the absorption and metabolism
increase the absorption and metabolism | O=C1CCC[C@@H]2[C@H]3CCC[N+]4([O-])CCC[C@@H](CN12)[C@@H]34 (some centres unmarked) [oxymatrine] | –
